Target: T1, ABCG2 (breast cancer resistance protein) (Homo sapiens, UniProt Q9UNQ0)
T1 sequence (Q9UNQ0 1-655): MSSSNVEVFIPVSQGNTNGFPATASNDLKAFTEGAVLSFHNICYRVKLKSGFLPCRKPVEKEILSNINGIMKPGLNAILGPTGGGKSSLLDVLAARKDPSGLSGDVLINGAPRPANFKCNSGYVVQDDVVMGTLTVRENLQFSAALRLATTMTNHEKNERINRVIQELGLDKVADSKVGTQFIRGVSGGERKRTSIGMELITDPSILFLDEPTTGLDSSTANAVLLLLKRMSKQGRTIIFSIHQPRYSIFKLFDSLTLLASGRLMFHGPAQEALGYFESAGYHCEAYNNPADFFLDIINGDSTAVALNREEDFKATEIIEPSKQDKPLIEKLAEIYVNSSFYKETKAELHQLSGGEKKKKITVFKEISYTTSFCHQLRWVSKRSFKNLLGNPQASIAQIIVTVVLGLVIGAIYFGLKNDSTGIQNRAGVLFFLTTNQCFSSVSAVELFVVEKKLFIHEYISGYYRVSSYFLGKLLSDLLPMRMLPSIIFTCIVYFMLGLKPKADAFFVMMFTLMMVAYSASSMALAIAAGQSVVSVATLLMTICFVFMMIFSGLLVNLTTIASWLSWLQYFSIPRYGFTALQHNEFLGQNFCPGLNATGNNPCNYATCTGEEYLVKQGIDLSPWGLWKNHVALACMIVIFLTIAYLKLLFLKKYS
Test: competition of […]IAAP photoaffinity labeling
Type: binding

`CN1CCC(CNc2ccc3ncc(-c4cccc(OC(F)(F)F)c4)n3n2)CC1` [SGI-1776] gave an IC50 of 90 nM.
